ChEMBL document CHEMBL1201862, “PubChem BioAssay data set” (2004)
Activity calls are given as the source filed them.

Tests used:
[1] = target: Peroxisome proliferator-activated receptor gamma/Nuclear receptor corepressor 2 (Homo sapiens, UniProt P37231+Q9Y618); type: functional
HeLa = experiment: viability loss in HeLa cells – cell-based, 24 h, cherry-picked samples, cytotoxicity control, dose response (AID 504726); type: functional; conditions: Homo sapiens;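 also: potency for cytotoxicity as loss of luminescence signal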
[2] = target: T1, Dual specificity protein phosphatase 3 (Homo sapiens, UniProt P51452); experiment: VHR1 phosphatase inhibitors, biochemical (AID 1878)
T1 sequence (P51452 whole entry): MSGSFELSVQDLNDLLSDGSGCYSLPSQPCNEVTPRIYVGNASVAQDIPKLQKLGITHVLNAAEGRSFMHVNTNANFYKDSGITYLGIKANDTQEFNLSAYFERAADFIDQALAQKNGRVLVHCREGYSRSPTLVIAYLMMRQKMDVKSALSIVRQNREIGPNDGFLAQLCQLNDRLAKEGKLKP

[3] = target: T2, Tyrosine-protein phosphatase non-receptor type 7 (Homo sapiens, UniProt P35236); experiment: redox-active compounds inhibiting HePTP phosphatase – biochemical, fluorescence, mechanism study (AID 2068); type: functional
T2 sequence (P35236 whole entry): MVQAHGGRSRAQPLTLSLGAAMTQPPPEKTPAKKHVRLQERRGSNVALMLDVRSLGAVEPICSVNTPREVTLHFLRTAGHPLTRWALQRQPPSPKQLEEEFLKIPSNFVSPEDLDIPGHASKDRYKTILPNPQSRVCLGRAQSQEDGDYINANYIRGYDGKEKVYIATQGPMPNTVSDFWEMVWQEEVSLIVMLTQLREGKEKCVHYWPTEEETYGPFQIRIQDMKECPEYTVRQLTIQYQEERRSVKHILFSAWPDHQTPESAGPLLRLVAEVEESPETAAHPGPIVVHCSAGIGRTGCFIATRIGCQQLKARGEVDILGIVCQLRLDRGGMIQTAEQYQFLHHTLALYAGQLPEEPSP

[4] = target: Intestinal-type alkaline phosphatase (Mus musculus, UniProt P24822); experiment: mouse intestinal alkaline phosphatase activators, dose response, biochemical, luminescence, uHTS hits (AID 488783); type: functional
Intestinal-type alkaline phosphatase, sequence (P24822 whole entry): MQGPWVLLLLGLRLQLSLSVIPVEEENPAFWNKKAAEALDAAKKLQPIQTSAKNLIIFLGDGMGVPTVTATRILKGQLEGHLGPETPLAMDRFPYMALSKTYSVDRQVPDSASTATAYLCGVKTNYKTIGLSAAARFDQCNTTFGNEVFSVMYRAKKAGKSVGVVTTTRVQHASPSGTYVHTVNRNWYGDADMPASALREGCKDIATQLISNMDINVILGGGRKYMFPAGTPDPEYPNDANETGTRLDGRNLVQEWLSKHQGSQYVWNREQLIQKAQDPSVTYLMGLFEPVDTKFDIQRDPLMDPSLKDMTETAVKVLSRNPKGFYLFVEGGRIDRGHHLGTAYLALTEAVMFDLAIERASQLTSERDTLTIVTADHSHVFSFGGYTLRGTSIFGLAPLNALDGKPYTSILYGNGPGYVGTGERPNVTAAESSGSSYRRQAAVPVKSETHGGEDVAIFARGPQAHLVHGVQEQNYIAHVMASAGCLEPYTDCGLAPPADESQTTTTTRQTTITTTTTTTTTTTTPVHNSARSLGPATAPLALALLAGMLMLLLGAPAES

[5] = target: T1, Dual specificity protein phosphatase 3; experiment: SAR VHR1 Fluorescent Assay for In Vitro dose response studies. [Related pubchem assays (depositor defined):AID1654, AID1661, AID1878, AID1992, AID2004, AID2070, AID2085]; type: functional
[6] = target: T3, Alkaline phosphatase, tissue-nonspecific isozyme (Homo sapiens, UniProt P05186); experiment: activation of tissue-nonspecific alkaline phosphatase – biochemical, TNAP isozyme, mouse IAP uHTS hits, selectivity assay for mouse IAP activator project, dose response (AID 488880); type: functional
T3 sequence (P05186 whole entry): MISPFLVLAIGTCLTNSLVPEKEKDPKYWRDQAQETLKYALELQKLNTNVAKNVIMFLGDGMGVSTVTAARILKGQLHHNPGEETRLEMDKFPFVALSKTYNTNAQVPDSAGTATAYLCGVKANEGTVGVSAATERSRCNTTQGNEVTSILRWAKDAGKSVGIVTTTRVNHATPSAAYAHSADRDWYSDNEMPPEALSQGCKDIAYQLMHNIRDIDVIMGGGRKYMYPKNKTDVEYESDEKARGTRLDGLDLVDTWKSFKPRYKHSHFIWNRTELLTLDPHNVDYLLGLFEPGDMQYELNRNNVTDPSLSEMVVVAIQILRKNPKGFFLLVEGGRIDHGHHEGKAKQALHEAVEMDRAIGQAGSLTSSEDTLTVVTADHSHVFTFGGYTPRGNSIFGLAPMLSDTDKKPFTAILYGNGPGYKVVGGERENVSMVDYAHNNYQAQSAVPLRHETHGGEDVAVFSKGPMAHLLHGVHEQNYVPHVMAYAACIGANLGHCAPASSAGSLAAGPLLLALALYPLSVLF

[7] = target: Small ubiquitin-related modifier 1 (Homo sapiens, UniProt P63165); experiment: SUMO1 protein-protein binding blockers, potency – biochemical, FRET, dose response (AID 624383); type: functional; conditions: read-out: IC50_Mean
Small ubiquitin-related modifier 1, sequence (P63165 whole entry): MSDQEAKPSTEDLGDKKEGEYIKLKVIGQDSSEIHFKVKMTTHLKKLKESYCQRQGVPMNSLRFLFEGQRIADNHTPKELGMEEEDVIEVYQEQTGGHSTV

[8] = alpha-synuclein stem-loop luciferase translation blockers – H4 neuroglioma cells, luminescence, confirmation (AID 1988); type: functional, cell-based
Caspase-3 = target: T4, Caspase-3 (Homo sapiens, UniProt P42574); type: functional;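 also: Dose-response selectivity test against caspase-3 for candidate inhibitors of sentrin-specific proteases (SENPs)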
T4 sequence (P42574 whole entry): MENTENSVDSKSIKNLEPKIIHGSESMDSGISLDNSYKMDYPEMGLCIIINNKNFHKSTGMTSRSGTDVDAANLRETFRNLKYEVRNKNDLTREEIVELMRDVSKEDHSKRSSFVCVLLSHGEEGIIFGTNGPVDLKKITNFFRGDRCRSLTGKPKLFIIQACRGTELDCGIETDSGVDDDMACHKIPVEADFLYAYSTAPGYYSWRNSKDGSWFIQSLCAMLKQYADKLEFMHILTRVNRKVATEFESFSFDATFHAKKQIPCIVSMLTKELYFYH

[9] = target: T5, Sentrin-specific protease 8 (Homo sapiens, UniProt Q96LD8); type: functional
T5 sequence (Q96LD8 whole entry): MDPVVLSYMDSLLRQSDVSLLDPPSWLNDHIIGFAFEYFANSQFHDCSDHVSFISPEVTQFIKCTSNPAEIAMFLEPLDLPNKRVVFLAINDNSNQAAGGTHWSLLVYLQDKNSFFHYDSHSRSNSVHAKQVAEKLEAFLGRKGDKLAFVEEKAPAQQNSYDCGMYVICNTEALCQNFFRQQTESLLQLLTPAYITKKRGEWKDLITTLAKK

[10] = target: T5, Sentrin-specific protease 8; type: functional; remark: listed apart in the source
[11] = target: T6, Tyrosine-protein phosphatase non-receptor type 22 (Homo sapiens, UniProt Q9Y2R2); type: functional;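 also: confirmatory dose-response retesting of primary uHTS hits against LYP; potency is for inhibition of phosphatase activity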
T6 sequence (Q9Y2R2 whole entry): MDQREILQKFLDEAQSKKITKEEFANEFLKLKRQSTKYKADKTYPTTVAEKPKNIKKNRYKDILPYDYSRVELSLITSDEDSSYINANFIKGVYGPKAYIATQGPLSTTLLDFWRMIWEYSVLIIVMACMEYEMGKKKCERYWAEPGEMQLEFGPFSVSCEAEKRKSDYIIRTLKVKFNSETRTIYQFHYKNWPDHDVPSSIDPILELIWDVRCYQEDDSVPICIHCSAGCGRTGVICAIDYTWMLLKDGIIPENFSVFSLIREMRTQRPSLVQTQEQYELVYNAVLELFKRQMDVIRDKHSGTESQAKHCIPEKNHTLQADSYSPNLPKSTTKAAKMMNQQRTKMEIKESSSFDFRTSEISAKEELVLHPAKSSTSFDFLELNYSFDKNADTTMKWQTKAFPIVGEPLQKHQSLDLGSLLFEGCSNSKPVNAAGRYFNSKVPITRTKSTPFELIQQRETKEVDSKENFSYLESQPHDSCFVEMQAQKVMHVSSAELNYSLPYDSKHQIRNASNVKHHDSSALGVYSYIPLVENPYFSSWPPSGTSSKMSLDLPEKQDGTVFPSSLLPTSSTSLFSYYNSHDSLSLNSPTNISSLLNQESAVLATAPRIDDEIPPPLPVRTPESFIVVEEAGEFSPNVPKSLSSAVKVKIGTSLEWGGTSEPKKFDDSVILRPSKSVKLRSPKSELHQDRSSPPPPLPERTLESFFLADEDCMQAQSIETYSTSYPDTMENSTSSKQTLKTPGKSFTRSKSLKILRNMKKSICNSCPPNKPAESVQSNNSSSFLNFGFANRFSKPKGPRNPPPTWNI

Peroxisome proliferator-activated receptor gamma/Nuclear receptor corepressor 2, sequence (P37231 whole entry): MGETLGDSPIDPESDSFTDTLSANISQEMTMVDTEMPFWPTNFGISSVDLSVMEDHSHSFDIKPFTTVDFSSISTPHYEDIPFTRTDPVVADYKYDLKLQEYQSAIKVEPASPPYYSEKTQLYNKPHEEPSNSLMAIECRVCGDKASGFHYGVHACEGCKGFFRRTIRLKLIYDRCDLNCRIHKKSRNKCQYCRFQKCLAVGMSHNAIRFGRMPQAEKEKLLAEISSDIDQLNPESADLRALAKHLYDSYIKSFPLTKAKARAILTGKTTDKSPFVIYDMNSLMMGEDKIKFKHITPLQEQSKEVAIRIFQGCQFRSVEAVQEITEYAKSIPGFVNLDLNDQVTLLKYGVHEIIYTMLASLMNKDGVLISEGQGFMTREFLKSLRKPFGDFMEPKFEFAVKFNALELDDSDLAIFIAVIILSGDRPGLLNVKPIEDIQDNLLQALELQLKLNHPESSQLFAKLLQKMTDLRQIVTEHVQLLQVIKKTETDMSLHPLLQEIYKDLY
Peroxisome proliferator-activated receptor gamma/Nuclear receptor corepressor 2, sequence (Q9Y618 whole entry): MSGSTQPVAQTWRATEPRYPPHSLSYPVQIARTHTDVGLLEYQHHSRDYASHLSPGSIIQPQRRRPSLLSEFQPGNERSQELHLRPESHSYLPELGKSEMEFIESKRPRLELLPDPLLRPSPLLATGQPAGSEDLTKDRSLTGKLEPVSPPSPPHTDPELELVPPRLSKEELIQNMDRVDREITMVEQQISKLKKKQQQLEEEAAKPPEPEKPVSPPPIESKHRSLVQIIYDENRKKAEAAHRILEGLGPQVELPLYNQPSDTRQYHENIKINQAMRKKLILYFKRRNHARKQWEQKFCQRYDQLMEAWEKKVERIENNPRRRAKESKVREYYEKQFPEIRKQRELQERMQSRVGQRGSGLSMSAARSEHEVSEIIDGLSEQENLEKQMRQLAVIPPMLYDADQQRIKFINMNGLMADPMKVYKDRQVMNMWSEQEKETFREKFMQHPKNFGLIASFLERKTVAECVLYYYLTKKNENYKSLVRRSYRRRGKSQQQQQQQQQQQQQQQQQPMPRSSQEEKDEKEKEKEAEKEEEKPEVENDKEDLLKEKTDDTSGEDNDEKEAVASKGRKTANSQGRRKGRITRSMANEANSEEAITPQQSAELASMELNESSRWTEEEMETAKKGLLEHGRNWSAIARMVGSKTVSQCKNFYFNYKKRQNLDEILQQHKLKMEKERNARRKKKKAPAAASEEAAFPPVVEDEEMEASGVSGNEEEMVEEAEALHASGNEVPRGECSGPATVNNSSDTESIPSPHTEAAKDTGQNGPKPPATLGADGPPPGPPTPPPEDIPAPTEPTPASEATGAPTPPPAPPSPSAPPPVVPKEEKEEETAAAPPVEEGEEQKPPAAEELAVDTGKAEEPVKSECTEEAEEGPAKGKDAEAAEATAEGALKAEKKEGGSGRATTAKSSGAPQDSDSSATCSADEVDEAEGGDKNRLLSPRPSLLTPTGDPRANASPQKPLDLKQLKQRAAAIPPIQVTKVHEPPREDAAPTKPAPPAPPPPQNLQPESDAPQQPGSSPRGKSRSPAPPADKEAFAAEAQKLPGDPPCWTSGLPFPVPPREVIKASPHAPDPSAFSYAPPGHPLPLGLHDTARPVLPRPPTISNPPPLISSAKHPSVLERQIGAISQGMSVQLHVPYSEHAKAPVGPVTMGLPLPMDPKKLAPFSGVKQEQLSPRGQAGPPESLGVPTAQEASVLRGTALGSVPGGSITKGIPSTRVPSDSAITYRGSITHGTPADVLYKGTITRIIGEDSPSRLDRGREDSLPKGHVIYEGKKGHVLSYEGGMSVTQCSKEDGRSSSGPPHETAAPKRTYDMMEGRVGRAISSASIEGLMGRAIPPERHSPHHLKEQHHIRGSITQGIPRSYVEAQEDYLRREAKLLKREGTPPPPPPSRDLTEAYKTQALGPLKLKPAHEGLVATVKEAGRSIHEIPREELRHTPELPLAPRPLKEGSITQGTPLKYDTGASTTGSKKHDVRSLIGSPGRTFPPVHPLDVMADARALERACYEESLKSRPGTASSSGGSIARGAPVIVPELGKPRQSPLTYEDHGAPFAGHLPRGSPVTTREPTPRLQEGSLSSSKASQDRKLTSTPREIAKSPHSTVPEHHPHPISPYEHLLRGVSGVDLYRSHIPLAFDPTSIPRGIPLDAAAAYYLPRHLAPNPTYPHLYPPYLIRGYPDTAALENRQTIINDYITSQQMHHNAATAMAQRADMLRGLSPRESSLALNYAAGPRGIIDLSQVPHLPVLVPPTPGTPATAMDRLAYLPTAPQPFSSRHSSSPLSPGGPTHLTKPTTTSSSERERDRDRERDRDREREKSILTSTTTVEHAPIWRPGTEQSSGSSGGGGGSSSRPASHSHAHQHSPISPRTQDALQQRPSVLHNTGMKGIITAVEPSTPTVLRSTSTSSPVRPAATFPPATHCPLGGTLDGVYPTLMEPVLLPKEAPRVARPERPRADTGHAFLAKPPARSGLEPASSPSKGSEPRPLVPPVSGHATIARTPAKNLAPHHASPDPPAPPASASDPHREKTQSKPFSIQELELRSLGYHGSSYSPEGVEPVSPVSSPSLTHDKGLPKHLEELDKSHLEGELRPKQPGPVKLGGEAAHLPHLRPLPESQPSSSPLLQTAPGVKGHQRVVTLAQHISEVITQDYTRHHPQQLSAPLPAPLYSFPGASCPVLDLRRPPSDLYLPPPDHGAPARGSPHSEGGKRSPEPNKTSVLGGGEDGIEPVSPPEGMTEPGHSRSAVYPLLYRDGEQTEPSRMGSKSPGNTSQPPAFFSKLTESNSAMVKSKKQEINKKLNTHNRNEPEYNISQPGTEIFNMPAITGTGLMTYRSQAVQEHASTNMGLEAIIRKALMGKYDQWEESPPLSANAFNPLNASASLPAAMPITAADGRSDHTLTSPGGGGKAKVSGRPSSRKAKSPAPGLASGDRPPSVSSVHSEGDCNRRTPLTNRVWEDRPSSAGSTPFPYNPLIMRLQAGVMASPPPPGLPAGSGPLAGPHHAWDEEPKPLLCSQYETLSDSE

Question: With `COC(=O)c1cc(C)nc2c1C(=O)C(=O)C=C2N1CCOCC1` as the molecule, how does the IC50 [1] read?
Answer: Its IC50 is > 39.8 µM (not active).

Question: For `NS(=O)(=O)c1cc(C(=O)NC2CCSc3ccccc32)ccc1Cl` (stereo not drawn), which AC50 (HeLa) is on record?
Answer: The AC50 was > 350 µM (inactive).

Question: What about the IC50 [2] of the same molecule?
Answer: The IC50 was < 1.23 µM (inactive).

Question: And the IC50 [3]?
Answer: The IC50 was 0.066 µM (active).

Question: And the EC50 [4]?
Answer: The EC50 was 5.57 µM (active).

Question: What about the IC50 [5] of the same molecule?
Answer: The IC50 was 0.065 µM (active).

Question: What about the EC50 [6] of the same molecule?
Answer: Its EC50 is 68.1 µM (active).

Question: And the IC50 [7]?
Answer: The IC50 was 2.29 µM (active).

Question: With `O=C1c2ccccc2C(=O)c2[nH]c(O)nc21` as the molecule, how does the EC50 [8] read?
Answer: The EC50 was 4.26 µM (active).

Question: For `CCOC(=O)C1=C(C)OC2(O)c3ccccc3C(=O)C12O` (stereo not drawn), which IC50 (Caspase-3) is on record?
Answer: Its IC50 is > 100 µM (inactive).

Question: And the IC50 [9]?
Answer: Its IC50 is 0.284 µM (active).

Question: What about the IC50 [10] of the same molecule?
Answer: Its IC50 is 5.38 µM (active).

Question: Which IC50 [11] does the source give for `N#Cc1c(N2CCCC2)nc(N)c2c(N)nc(N3CCCC3)cc12` here?
Answer: The IC50 was > 79.4 µM (inactive).
